Data from ChEMBL document CHEMBL1153365, “Identification of potent pyrimidine inhibitors of phosphodiesterase 7 (PDE7) and their ability to inhibit T cell proliferation” (Bioorg Med Chem Lett, 2009).
Converted amounts (≈) assume the structure as drawn. Blank lines part the entries; values can stand above or below the molecule they belong to.

Tests used:
[1] = Inhibition of PDE4
[2] = Inhibition of PDE1
PBMC [3] = test: Immunosuppressant activity in PBMC assessed as cytotoxicity; type: functional, cell-based; conditions: Homo sapiens
PBMC [4] = test: Immunosuppressant activity in PBMC assessed as antiproliferation after 3 days by [3H]thymidine incorporation assay; type: functional, cell-based; conditions: Homo sapiens
[5] = Inhibition of PDE3
[6] = biological target: cGMP-specific 3',5'-cyclic phosphodiesterase (Homo sapiens, UniProt O76074); test: Inhibition of PDE5
[7] = Inhibition of PDE7
[8] = Aqueous solubility at pH 6.5; type: physicochemical
Splenocyte = test: Immunosuppressant activity in wild type splenocyte assessed as antiproliferation; type: functional, cell-based; conditions: Mus musculus
[9] = Immunosuppressant activity in PDE7 knockout splenocyte assessed as antiproliferation; type: functional, cell-based

IC50 [1]: 2.3 µM
IC50 [2]: > 10 µM
solubility [8]: > 20 µg/mL
IC50 [5]: 8 µM
IC50 [6]: 0.32 µM
IC50 [7]: 31 nM
Compound: CCOC(=O)c1sc(Nc2nc(NCc3ccc(OC)c(OC)c3)cc(N3CCNCC3)n2)nc1C
IC50 (PBMC [3]): 12 µM
IC50 (PBMC [4]): 1200 nM

IC50 [1]: 3.2 µM
IC50 [2]: 7.9 µM
solubility [8]: > 20 µg/mL
IC50 [5]: 22 µM
IC50 [6]: 7.6 µM
IC50 [7]: 10 nM
Compound: CCOC(=O)c1sc(Nc2nc(N(C)Cc3cc(OC)c(OC)c(OC)c3)cc(N3CCNCC3)n2)nc1C
IC50 (PBMC [3]): 14 µM
IC50 (PBMC [4]): 450 nM

IC50 [1]: > 10 µM
IC50 [2]: > 50 µM
solubility [8]: > 20 µg/mL
IC50 [5]: 46 µM
IC50 [6]: > 10 µM
IC50 [7]: 83 nM
Compound: CCOC(=O)c1sc(Nc2nc(N3CCC(N(C)C)CC3)cc(N3CCN(C)CC3)n2)nc1C
IC50 (PBMC [3]): 15 µM
IC50 (PBMC [4]): 2500 nM

IC50 [1]: 5.1 µM
IC50 [2]: 4.1 µM
solubility [8]: > 20 µg/mL
IC50 [5]: 27 µM
IC50 [6]: 5.2 µM
IC50 [7]: 39 nM
Compound: CCOC(=O)c1sc(Nc2nc(N(C)Cc3cc(OC)c(OC)c(OC)c3)cc(N3CCN(C)CC3)n2)nc1C
IC50 (PBMC [3]): > 25 µM
IC50 (PBMC [4]): 690 nM

IC50 [1]: 9.4 µM
IC50 [2]: 27 µM
solubility [8]: > 20 µg/mL
IC50 [5]: 19 µM
IC50 [6]: > 10 µM
IC50 [7]: 56 nM
Compound: CCOC(=O)c1sc(Nc2nc(N3CCN(C)CC3)cc(N3CCN(CCN(C)C)CC3)n2)nc1C
IC50 (PBMC [3]): 15 µM
IC50 (PBMC [4]): 2200 nM

IC50 [7]: 6 nM
Compound: CCOC(=O)c1sc(Nc2nc(N3CCNCC3)c3c(n2)N(Cc2cc(OC)c(OC)c(OC)c2)CC3)nc1C

The remaining lines, values behind:

Compound: CCOC(=O)c1sc(Nc2nc(NC)cc(NCc3ccc(S(N)(=O)=O)cc3)n2)nc1C
IC50 [1]: 0.03 µM
IC50 [2]: > 10 µM
IC50 (PBMC [3]): > 25 µM
IC50 (PBMC [4]): 500 nM
IC50 [5]: > 50 µM
IC50 [6]: 0.065 µM
IC50 [7]: 100 nM

Compound: CCOC(=O)c1sc(Nc2nc(N3CCC(N(C)C)CC3)cc(N3CCCC(CO)C3)n2)nc1C (stereo not given)
IC50 [1]: 9.3 µM
IC50 [2]: 11 µM
IC50 (PBMC [3]): > 25 µM
solubility [8]: > 20 µg/mL
IC50 (PBMC [4]): 5000 nM
IC50 [5]: > 50 µM
IC50 [6]: > 10 µM
IC50 [7]: 120 nM

Compound: CCOC(=O)c1sc(Nc2nc(N3CCC(N(C)C)CC3)cc(N3CCNC(C(N)=O)C3)n2)nc1C (stereo not given)
IC50 [1]: 8 µM
IC50 [2]: 23 µM
IC50 (PBMC [3]): > 25 µM
solubility [8]: > 20 µg/mL
IC50 (PBMC [4]): 3100 nM
IC50 [5]: > 50 µM
IC50 [6]: 6.5 µM
IC50 [7]: 82 nM

Compound: CCOC(=O)c1sc(Nc2nc(N3CCC(O)CC3)cc(N3CCC(N(C)C)CC3)n2)nc1C
IC50 [1]: > 10 µM
IC50 [2]: 23 µM
IC50 (PBMC [3]): > 25 µM
solubility [8]: 20 µg/mL (≈ 40.8 µM)
IC50 (PBMC [4]): 1500 nM
IC50 [5]: > 50 µM
IC50 [6]: > 10 µM
IC50 [7]: 76 nM

Compound: CCOC(=O)c1sc(Nc2nccc(NCc3ccc(S(N)(=O)=O)cc3)n2)nc1C
IC50 [7]: 220 nM

Compound: CCOC(=O)c1sc(Nc2nc(N3CCOCC3)cc(N3CCC(N(C)C)CC3)n2)nc1C
IC50 [1]: 9.5 µM
IC50 [2]: 15 µM
IC50 (PBMC [3]): > 25 µM
solubility [8]: > 20 µg/mL
IC50 (PBMC [4]): 2000 nM
IC50 [5]: 13 µM
IC50 [6]: > 10 µM
IC50 [7]: 130 nM

Compound: CCOC(=O)c1sc(Nc2nc(NCc3ccc(S(N)(=O)=O)cc3)c3c(ncn3CC)n2)nc1C
IC50 [7]: 10 nM

Compound: CCOC(=O)c1sc(Nc2nc(NCc3ccc(S(N)(=O)=O)cc3)cc(N3CCNCC3)n2)nc1C
IC50 [1]: 0.22 µM
IC50 [2]: 4.1 µM
IC50 (PBMC [3]): > 25 µM
solubility [8]: 20 µg/mL (≈ 37.5 µM)
IC50 (PBMC [4]): 7200 nM
IC50 [5]: 2.8 µM
IC50 [6]: 0.072 µM
IC50 [7]: 10 nM

Compound: CCOC(=O)c1sc(Nc2nc(N3CCC(O)CC3)cc(N3CCC(O)CC3)n2)nc1C
IC50 [1]: 3.2 µM
IC50 (Splenocyte): 210 nM
IC50 [2]: 4.9 µM
IC50 (PBMC [3]): > 25 µM
solubility [8]: 20 µg/mL (≈ 43.2 µM)
IC50 (PBMC [4]): 120 nM
IC50 [5]: 20 µM
IC50 [6]: 0.7 µM
IC50 [9]: 150 nM
IC50 [7]: 63 nM
